Literature values in patent US20020127714A1, “Inhibitors of alternative alleles of genes encoding products that mediate cell response to environmental changes” (Variagenics, Inc., a Delaware corporation, priority 1998, published 2002).
Read-outs that look alike come from different tables or passages of the source.

Experiments:
MGMT 160 arginine allele = molecular target: T1, MGMT 160 arginine allele (Homo sapiens, UniProt P16455, G160R); details: 160arg versus 160gly form of MGMT; also seen as reduced production of guanine from O6-benzyl[8-3H]guanine
T1 sequence (P16455 1-207 G160R): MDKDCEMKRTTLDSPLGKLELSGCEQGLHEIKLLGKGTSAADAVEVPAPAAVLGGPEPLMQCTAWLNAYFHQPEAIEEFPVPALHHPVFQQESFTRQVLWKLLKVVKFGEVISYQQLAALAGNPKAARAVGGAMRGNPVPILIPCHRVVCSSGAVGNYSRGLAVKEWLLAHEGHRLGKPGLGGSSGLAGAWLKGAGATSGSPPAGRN

serum asparagine = details: within hours of injection

Compound: O=c1[nH]cc(F)c(=O)[nH]1 [5-FU, 5-fluorouracil]
- half life of 5-FU (normals): 0.13 to 0.333 h
- half life of 5-FU (patients homozygous for mutant DPD alleles (DPD deficiency)): > 2.5 h

Compound: Nc1nc(OCc2ccccc2)c2nc[nH]c2n1 [O6 benzylguanine, O6-benzylguanine]
- resistance of the 160 arginine allele to inactivation, measured as an increase in the ED50 (MGMT 160 arginine allele): at least 20 fold

Compound: L-asparaginase
- blood levels of asparagine (serum asparagine): undetectable levels
